Data published in ChEMBL document CHEMBL1146565, “Intercedensides A-C, three new cytotoxic triterpene glycosides from the sea cucumber Mensamaria intercedens Lampert” (2003).

System: Pyricularia oryzae
Experiment: Antimicrobial activity against Pyricularia oryzae P-2b assessed as drug concentration causing minimum morphological deformation
Type: functional

Q: Which Activity does the source give for `O=c1[nH]cc(F)c(=O)[nH]1` [FLUOROURACIL] here?
A: Its Activity is “<=5 ug ml-1”.
